Measurements taken from US8575186B2, “Epiminocycloalkyl[b] indole derivatives as serotonin sub-type 6 (5-HT6) modulators and uses thereof” (Albany Molecular Research, Inc., priority 2009, dated 2013).
Structures can show the parent of a compound that is named as a salt.

Test system: not given
Experiment: not given
Conditions: not given

Compared with `Cn1c2c(c3cc(S(=O)(=O)c4ccc(CN)cc4)ccc31)C1CCC(C2)N1` (stereo not shown) (as salt: hydrochloride) [Example 33, 2-(4-Aminomethylphenyl)sulfonyl-5-methyl-5,6,7,8,9,10-hexahydro-7,10-epiminocyclohepta[b]indole dihydrochloride], `Cl.Cn1c2c(c3cc(S(=O)(=O)c4ccc(N)cc4)ccc31)C1CCC(C2)N1` (stereo not shown) [Example 53, 2-(4-Aminophenyl)sulfonyl-5-methyl-5,6,7,8,9,10-hexahydro-7,10-epiminocyclohepta[b]indole hydrochloride] is lower in melting point: 237 to 239 °C for the first, 220 to 225 °C for the second.

Compared with `CN(C)Cc1ccc(S(=O)(=O)c2ccc3c(c2)c2c(n3C)CC3CCC2N3)cc1` (stereo not shown) (as salt: hydrochloride) [Example 34, 2-[4-(N,N-Dimethylaminomethyl)phenyl]sulfonyl-5-methyl-5,6,7,8,9,10-hexahydro-7,10-epiminocyclohepta[b]indole dihydrochloride], `Cl.Cn1c2c(c3cc(S(=O)(=O)c4ccc(C(F)(F)F)cc4)ccc31)C1CCC(C2)N1` (stereo not shown) [Example 29, 2-(4-Trifluoromethylphenyl)sulfonyl-5-methyl-5,6,7,8,9,10-hexahydro-7,10-epiminocyclohepta[b]indole hydrochloride] is lower in melting point: 244 to 246 °C for the first, 200 to 205 °C for the second.

First: Cl.Cn1c2c(c3cc(S(=O)(=O)c4cccc(OC(F)(F)F)c4)ccc31)C1CCC(C2)N1 (stereo not shown) [Example 39, 2-(3-Trifluoromethoxyphenyl)sulfonyl-5-methyl-5,6,7,8,9,10-hexahydro-7,10-epiminocyclohepta[b]indole hydrochloride]
Second: Cl.Cn1c2c(c3cc(S(=O)(=O)c4cccc(C#N)c4)ccc31)C1CCC(C2)N1 (stereo not shown) [Example 43, 2-(3-Cyanophenyl)sulfonyl-5-methyl-5,6,7,8,9,10-hexahydro-7,10-epiminocyclohepta[b]indole hydrochloride]
The melting point of the first is lower: 193 to 196 °C for the first, 211 to 214 °C for the second.

First: Cl.Cn1c2c(c3cc(S(=O)(=O)c4cccc(NC5CCCC5)c4)ccc31)C1CCC(C2)N1 (stereo not shown) [Example 48, 2-[(3-N-Cyclopentylamino)phenyl]sulfonyl-5-methyl-5,6,7,8,9,10-hexahydro-7,10-epiminocyclohepta[b]indole hydrochloride]
Second: Cl.Cn1c2c(c3cc(S(=O)(=O)c4ccc5ccccc5c4)ccc31)C1CCC(C2)N1 (stereo not shown) [Example 50, 2-(2-Napthyl)sulfonyl-5-methyl-5,6,7,8,9,10-hexahydro-7,10-epiminocyclohepta[b]indole hydrochloride]
The melting point of the first is lower: 211 to 217 °C for the first, 220 to 222 °C for the second.

In the case of `Cl.Cn1c2c(c3cc(S(=O)(=O)c4ccccc4)ccc31)C1CCC(C2)N1` (stereo not shown) [Example 27, 2-Phenylsulfonyl-5-methyl-5,6,7,8,9,10-hexahydro-7,10-epiminocyclohepta[b]indole hydrochloride], the melting point is reported as 238 to 244 °C (dec.).
For `CN(C)c1cccc(S(=O)(=O)c2ccc3c(c2)c2c(n3C)CC3CCC2N3)c1.Cl` (stereo not shown) [Example 45, 2-[(3-N,N-Dimethylamino)phenyl]sulfonyl-5-methyl-5,6,7,8,9,10-hexahydro-7,10-epiminocyclohepta[b]indole hydrochloride], the melting point was 204 to 208 °C (dec.).
For `Cl.Cn1c2c(c3cc(S(=O)(=O)c4ccsc4)ccc31)C1CCC(C2)N1` (stereo not shown) [Example 56, 2-(3-Thienyl)sulfonyl-5-methyl-5,6,7,8,9,10-hexahydro-7,10-epiminocyclohepta[b]indole hydrochloride], the melting point was 208 to 212 °C (dec.).

Biological target: human 5-HT6 receptor (Homo sapiens (Human), UniProt P50406)
Experiment: radioligand binding assay (SPA format), [N-methyl-3H]-LSD
Conditions: human 5HT6 Ki, human 5-HT6 receptor membranes, 10 nM [3H]-LSD

human 5-HT6 receptor, sequence (P50406 whole entry): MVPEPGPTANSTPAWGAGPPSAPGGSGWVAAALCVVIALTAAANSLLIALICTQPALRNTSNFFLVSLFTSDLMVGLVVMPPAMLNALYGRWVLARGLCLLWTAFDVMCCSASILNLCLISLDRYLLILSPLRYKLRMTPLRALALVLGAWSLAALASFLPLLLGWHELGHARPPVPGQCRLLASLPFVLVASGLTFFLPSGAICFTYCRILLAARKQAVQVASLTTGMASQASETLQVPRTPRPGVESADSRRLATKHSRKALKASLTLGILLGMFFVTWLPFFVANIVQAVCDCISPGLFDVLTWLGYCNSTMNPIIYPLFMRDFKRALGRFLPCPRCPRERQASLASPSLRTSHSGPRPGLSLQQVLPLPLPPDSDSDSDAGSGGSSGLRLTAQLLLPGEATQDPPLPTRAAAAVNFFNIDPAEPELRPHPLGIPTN

`Cn1c2c(c3cc(S(=O)(=O)n4ccc5ccc(C#N)cc54)ccc31)C1CCC(C2)N1` (stereo not shown) [Example 199] and `COc1cc(S(=O)(=O)c2cccc(C(F)(F)F)c2)cc2c3c(n(C)c12)CC1CCC3N1` (stereo not shown) [Example 215] are the same in Ki: 1.8 nM for the first, 1.8 nM for the second.

Compound `COc1cc(S(=O)(=O)c2cccc(C(F)(F)F)c2)cc2c3c(n(C)c12)CC1CCC3N1` (stereo not shown) [Example 216] has a Ki of 0.8 nM.

Same assay, conditions: read-out: human 5HT6 Ki; human 5-HT6 receptor membranes, 10 nM [3H]-LSD

Going from `Cn1c2c(c3cc(S(=O)(=O)c4ccccc4)cc(OC(F)(F)F)c31)C1CCC(C2)N1` (stereo not shown) [Example 150] to `CCOc1cc(S(=O)(=O)c2ccccc2)cc2c3c(n(C)c12)CC1CCC3N1` (stereo not shown) [Example 234], the Ki falls from 70 nM to 4.9 nM (14-fold). The second binds more tightly here.

Compared with `CN(C)C(=O)COc1cc(S(=O)(=O)c2ccccc2)cc2c3c(n(C)c12)CC1CCC3N1` (stereo not shown) [Example 153], `CCOc1cc(S(=O)(=O)c2ccccc2)cc2c3c(n(C)c12)CC1CCC3N1` (stereo not shown) [Example 235] is 1400-fold lower in Ki: 581 nM for the first, 0.42 nM for the second. The second binds more tightly here.

Going from `Cn1c2c(c3cc(S(=O)(=O)c4ccccc4)cc(OCc4ccccn4)c31)C1CCC(C2)N1` (stereo not shown) [Example 154] to `Cn1c2c(c3cc(S(=O)(=O)c4ccccc4)cc(OCc4cccnc4)c31)C1CCC(C2)N1` (stereo not shown) [Example 155], the Ki rises from 80 nM to 129 nM (1.6-fold). The first binds more tightly here.

First: Cn1c2c(c3cc(S(=O)(=O)c4ccccc4)cc(N4CCCC4)c31)C1CCC(C2)N1 (stereo not shown) [Example 156]
Second: Cn1c2c(c3cc(S(=O)(=O)c4ccccc4F)cc(O)c31)C1CCC(C2)N1 (stereo not shown) [Example 210]
The Ki of the first is 52-fold higher: 52 nM for the first, 1 nM for the second.

Going from `Cn1c2c(c3cc(S(=O)(=O)c4cccc(Cl)c4)ccc31)C1CCC(C2)N1` (stereo not shown) [Example 157] to `Cn1c2c(c3cc(S(=O)(=O)c4cccc(-n5cccn5)c4)ccc31)C1CCC(C2)N1` (stereo not shown) [Example 244], the Ki rises from 2.7 nM to 14 nM (5.2-fold). The first binds more tightly here.

Going from `Cn1cc(S(=O)(=O)c2ccc3c(c2)c2c(n3C)CC3CCC2N3)c2ccccc21` (stereo not shown) [Example 165] to `Cc1cn(S(=O)(=O)c2ccc3c(c2)c2c(n3C)CC3CCC2N3)c2ccccc12` (stereo not shown) [Example 201], the Ki rises from 0.81 nM to 1.4 nM (1.7-fold). The first binds more tightly here.

First: Cn1cc(S(=O)(=O)c2ccc3c(c2)c2c(n3C)CC3CCC2N3)c2ccccc21 (stereo not shown) [Example 166]
Second: Cc1cn(S(=O)(=O)c2ccc3c(c2)c2c(n3C)CC3CCC2N3)c2ccccc12 (stereo not shown) [Example 202]
The Ki of the first is 1.8-fold lower: 0.41 nM for the first, 0.72 nM for the second. The first binds more tightly here.

Compared with `Cn1c2c(c3cc(S(=O)(=O)c4ccc5sccc5c4)ccc31)C1CCC(C2)N1` (stereo not shown) [Example 167], `Cn1c2c(c3cc(S(=O)(=O)c4ccc(C#N)cc4)ccc31)C1CCC(C2)N1` (stereo not shown) [Example 177] is 100-fold higher in Ki: 7.5 nM for the first, 747 nM for the second. The first binds more tightly here.

First: Cn1c2c(c3cc(S(=O)(=O)c4ccc5sccc5c4)ccc31)C1CCC(C2)N1 (stereo not shown) [Example 168]
Second: Cn1c2c(c3cc(S(=O)(=O)c4ccc(C#N)cc4)ccc31)C1CCC(C2)N1 (stereo not shown) [Example 178]
The Ki of the first is 140-fold lower: 3.3 nM for the first, 454 nM for the second. The first binds more tightly here.

Going from `Cn1c2c(c3cc(S(=O)(=O)c4cccc5cccnc45)ccc31)C1CCC(C2)N1` (stereo not shown) [Example 169] to `Cn1c2c(c3cc(S(=O)(=O)c4cccc(-n5cccn5)c4)ccc31)C1CCC(C2)N1` (stereo not shown) [Example 245], the Ki falls from 27 nM to 9 nM (3-fold). The second binds more tightly here.

Going from `Cn1c2c(c3cc(S(=O)(=O)c4cccc5cccnc45)ccc31)C1CCC(C2)N1` (stereo not shown) [Example 170] to `Cn1c2c(c3cc(S(=O)(=O)n4ccc5cc(Cl)ccc54)ccc31)C1CCC(C2)N1` (stereo not shown) [Example 195], the Ki falls from 17 nM to 4.6 nM (3.7-fold).

First: CC(C)n1c2c(c3cc(S(=O)(=O)c4ccccc4)ccc31)C1CCC(C2)N1 (stereo not shown) [Example 181]
Second: Cn1c2c(c3cc(S(=O)(=O)n4ccc5cc(Cl)ccc54)ccc31)C1CCC(C2)N1 (stereo not shown) [Example 196]
The Ki of the first is 240-fold higher: 284 nM for the first, 1.2 nM for the second. The second binds more tightly here.

First: CC(C)n1c2c(c3cc(S(=O)(=O)c4ccccc4)ccc31)C1CCC(C2)N1 (stereo not shown) [Example 182]
Second: COc1cc(S(=O)(=O)c2cccc(F)c2)cc2c3c(n(C)c12)CC1CCC3N1 (stereo not shown) [Example 221]
The Ki of the first is 110-fold higher: 365 nM for the first, 3.3 nM for the second. The second binds more tightly here.

Going from `CN1C2CCC1c1c(n(C)c3ccc(S(=O)(=O)c4ccc5[nH]ccc5c4)cc13)C2` (stereo not shown) [Example 183] to `CCN1C2CCC1c1c(n(C)c3ccc(S(=O)(=O)c4ccc5[nH]ccc5c4)cc13)C2` (stereo not shown) [Example 185], the Ki rises from 0.42 nM to 1.5 nM (3.6-fold). The first binds more tightly here.

Compared with `CN1C2CCC1c1c(n(C)c3ccc(S(=O)(=O)c4ccc5[nH]ccc5c4)cc13)C2` (stereo not shown) [Example 184], `CCN1C2CCC1c1c(n(C)c3ccc(S(=O)(=O)c4ccc5[nH]ccc5c4)cc13)C2` (stereo not shown) [Example 186] is 2.2-fold higher in Ki: 0.35 nM for the first, 0.77 nM for the second.

First: Cn1c2c(c3cc(S(=O)(=O)n4ccc5ccc(C#N)cc54)ccc31)C1CCC(C2)N1 (stereo not shown) [Example 200]
Second: COc1cc(S(=O)(=O)n2ccc3ccc(C#N)cc32)cc2c3c(n(C)c12)CC1CCC3N1 (stereo not shown) [Example 242]
The Ki of the first is 3.2-fold lower: 0.75 nM for the first, 2.4 nM for the second. The first binds more tightly here.

First: Cn1c2c(c3cc(S(=O)(=O)c4cccc(C(F)(F)F)c4)cc(O)c31)C1CCC(C2)N1 (stereo not shown) [Example 209]
Second: Cn1c2c(c3cc(S(=O)(=O)c4ccccc4F)cc(O)c31)C1CCC(C2)N1 (stereo not shown) [Example 211]
The Ki of the first is 3-fold lower: 0.53 nM for the first, 1.6 nM for the second.

Compared with `COc1cc(S(=O)(=O)c2cccc(OC(F)F)c2)cc2c3c(n(C)c12)CC1CCC3N1` (stereo not shown) [Example 214], `COc1cc(S(=O)(=O)c2cccc(F)c2)cc2c3c(n(C)c12)CC1CCC3N1` (stereo not shown) [Example 222] is 5.4-fold lower in Ki: 3 nM for the first, 0.56 nM for the second.

First: COc1cc(S(=O)(=O)c2cn(C)c3ccccc23)cc2c3c(n(C)c12)CC1CCC3N1 (stereo not shown) [Example 223]
Second: COc1cc(S(=O)(=O)c2cncc3ccccc23)cc2c3c(n(C)c12)CC1CCC3N1 (stereo not shown) [Example 232]
The Ki of the first is 4-fold lower: 2.4 nM for the first, 9.6 nM for the second. The first binds more tightly here.

First: COc1cc(S(=O)(=O)c2cn(C)c3ccccc23)cc2c3c(n(C)c12)CC1CCC3N1 (stereo not shown) [Example 224]
Second: COc1cc(S(=O)(=O)c2cncc3ccccc23)cc2c3c(n(C)c12)CC1CCC3N1 (stereo not shown) [Example 233]
The Ki of the first is 3.7-fold lower: 0.99 nM for the first, 3.7 nM for the second. The first binds more tightly here.

Going from `COc1cc(S(=O)(=O)c2cccc(Cl)c2)cc2c3c(n(C)c12)CC1CCC3N1C` (stereo not shown) [Example 225] to `COc1cc(S(=O)(=O)c2cccc(-n3cccn3)c2)cc2c3c(n(C)c12)CC1CCC3N1` (stereo not shown) [Example 246], the Ki rises from 0.53 nM to 10 nM (19-fold). The first binds more tightly here.

Compared with `COc1cc(S(=O)(=O)c2cccc(Cl)c2)cc2c3c(n(C)c12)CC1CCC3N1C` (stereo not shown) [Example 226], `COc1cc(S(=O)(=O)c2cccc(-n3cccn3)c2)cc2c3c(n(C)c12)CC1CCC3N1` (stereo not shown) [Example 247] is 1.5-fold higher in Ki: 1 nM for the first, 1.5 nM for the second.

`COc1cc(S(=O)(=O)n2ccc3ccccc32)cc2c3c(n(C)c12)CC1CCC3N1` (stereo not shown) [Example 240] and `COc1cc(S(=O)(=O)n2ccc3ccc(C#N)cc32)cc2c3c(n(C)c12)CC1CCC3N1` (stereo not shown) [Example 243] are within 1.5-fold of each other in Ki: 0.85 nM for the first, 0.58 nM for the second.

With `COc1cc(S(=O)(=O)n2ccc3ccccc32)cc2c3c(n(C)c12)CC1CCC3N1` (stereo not shown) [Example 241] the Ki was 0.35 nM.
